{
  "source": "ChEMBL document CHEMBL1201862",
  "about": "“PubChem BioAssay data set” (2004)",
  "test_in_all_cases": "growth of human tumour cells (NCI), 48 h",
  "key": {"SK-OV-3": {"system": "SK-OV-3"}, "U-251": {"system": "U-251"}, "SK-MEL-5": {"system": "SK-MEL-5"}, "ACHN": {"system": "ACHN"}, "HOP-92": {"system": "HOP-92"}, "NCI-H226": {"system": "NCI-H226"}, "UO-31": {"system": "UO-31"}, "MDA-MB-231": {"system": "MDA-MB-231"}, "OVCAR-5": {"system": "OVCAR-5"}, "OVCAR-8": {"system": "OVCAR-8"}, "MDA-N": {"system": "MDA-N"}, "HCT-116": {"system": "HCT-116"}, "SF-268": {"system": "SF-268"}, "K562": {"system": "K562"}, "COLO 205": {"system": "COLO 205"}, "SF-295": {"system": "SF-295"}, "MOLT-4": {"system": "MOLT-4"}, "EKVX": {"system": "EKVX"}, "UACC-257": {"system": "UACC-257"}, "LOX IMVI": {"system": "LOX IMVI"}, "PC-3": {"system": "PC-3"}, "CCRF-CEM": {"system": "CCRF-CEM"}, "786-0": {"system": "786-0"}, "T47D": {"system": "T47D"}, "M14": {"system": "M14"}, "NCI-H23": {"system": "NCI-H23"}, "MCF7": {"system": "MCF7"}, "OVCAR-3": {"system": "OVCAR-3"}, "UACC-62": {"system": "UACC-62"}, "IGROV-1": {"system": "IGROV-1"}, "CAKI-1": {"system": "CAKI-1"}, "SN12C": {"system": "SN12C"}, "Hs-578T": {"system": "Hs-578T"}, "DU-145": {"system": "DU-145"}, "NCI/ADR-RES": {"system": "NCI/ADR-RES"}, "SNB-19": {"system": "SNB-19"}, "SK-MEL-28": {"system": "SK-MEL-28"}, "HT-29": {"system": "HT-29"}, "NCI-H460": {"system": "NCI-H460"}, "NCI-H522": {"system": "NCI-H522"}, "HCT-15": {"system": "HCT-15"}, "A498": {"system": "A498"}, "RPMI-8226": {"system": "RPMI-8226"}, "TK-10": {"system": "TK-10"}, "SNB-75": {"system": "SNB-75"}, "SF-539": {"system": "SF-539"}, "SR": {"system": "SR"}, "HL-60": {"system": "HL-60"}, "KM12": {"system": "KM12"}, "MDA-MB-435": {"system": "MDA-MB-435"}, "SW-620": {"system": "SW-620"}, "OVCAR-4": {"system": "OVCAR-4"}, "A549": {"system": "A549"}, "HOP-62": {"system": "HOP-62"}, "BT-549": {"system": "BT-549"}, "SK-MEL-2": {"system": "SK-MEL-2"}, "RXF 393": {"system": "RXF 393"}, "HCC 2998": {"system": "HCC 2998"}},
  "note": "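Dose response: 5 concentrations. Exposure: 48 h. Format: 96-well plates. Endpoint: linear interpolation; highest concentration if not reached. GI50 marks 50% less growth.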 Activity calls are given as the source filed them. Rule as the data show it: active = GI50 up to about 1.1 µM and inactive = higher.",
  "data": [
    {"smiles": "COC(=O)[C@H]1C=C[C@H](OC2OC(COC(C)=O)C(OC(C)=O)C(OC(C)=O)C2OC(C)=O)n2c(=O)n(-c3ccccc3)c(=O)n21", "note": "(stereo partly drawn)", "values": [
      {"measurement": "GI50", "setting": "SK-OV-3", "value": "18400 nM (inactive)"},
      {"measurement": "GI50", "setting": "U-251", "value": "8750 nM (inactive)"},
      {"measurement": "GI50", "setting": "SK-MEL-5", "value": "2120 nM (inactive)"},
      {"measurement": "GI50", "setting": "ACHN", "value": "1660 nM (inactive)"},
      {"measurement": "GI50", "setting": "HOP-92", "value": "1780 nM (inactive)"},
      {"measurement": "GI50", "setting": "NCI-H226", "value": "7060 nM (inactive)"},
      {"measurement": "GI50", "setting": "UO-31", "value": "2040 nM (inactive)"},
      {"measurement": "GI50", "setting": "MDA-MB-231", "value": "6970 nM (inactive)"},
      {"measurement": "GI50", "setting": "OVCAR-5", "value": "9180 nM (inactive)"},
      {"measurement": "GI50", "setting": "OVCAR-8", "value": "5780 nM (inactive)"},
      {"measurement": "GI50", "setting": "MDA-N", "value": "4680 nM (inactive)"},
      {"measurement": "GI50", "setting": "HCT-116", "value": "2960 nM (inactive)"},
      {"measurement": "GI50", "setting": "SF-268", "value": "3670 nM (inactive)"},
      {"measurement": "GI50", "setting": "K562", "value": "1770 nM (inactive)"},
      {"measurement": "GI50", "setting": "COLO 205", "value": "1700 nM (inactive)"},
      {"measurement": "GI50", "setting": "SF-295", "value": "13100 nM (inactive)"},
      {"measurement": "GI50", "setting": "MOLT-4", "value": "2490 nM (inactive)"},
      {"measurement": "GI50", "setting": "EKVX", "value": "2590 nM (inactive)"},
      {"measurement": "GI50", "setting": "UACC-257", "value": "7520 nM (inactive)"},
      {"measurement": "GI50", "setting": "LOX IMVI", "value": "1840 nM (inactive)"},
      {"measurement": "GI50", "setting": "PC-3", "value": "10700 nM (inactive)"},
      {"measurement": "GI50", "setting": "CCRF-CEM", "value": "2250 nM (inactive)"},
      {"measurement": "GI50", "setting": "786-0", "value": "2450 nM (inactive)"},
      {"measurement": "GI50", "setting": "T47D", "value": "3480 nM (inactive)"},
      {"measurement": "GI50", "setting": "M14", "value": "2700 nM (inactive)"},
      {"measurement": "GI50", "setting": "NCI-H23", "value": "4990 nM (inactive)"},
      {"measurement": "GI50", "setting": "MCF7", "value": "2420 nM (inactive)"},
      {"measurement": "GI50", "setting": "OVCAR-3", "value": "2910 nM (inactive)"},
      {"measurement": "GI50", "setting": "UACC-62", "value": "1540 nM (inactive)"},
      {"measurement": "GI50", "setting": "IGROV-1", "value": "4980 nM (inactive)"},
      {"measurement": "GI50", "setting": "CAKI-1", "value": "935 nM (active)"},
      {"measurement": "GI50", "setting": "SN12C", "value": "6520 nM (inactive)"},
      {"measurement": "GI50", "setting": "Hs-578T", "value": "2380 nM (inactive)"},
      {"measurement": "GI50", "setting": "DU-145", "value": "6080 nM (inactive)"},
      {"measurement": "GI50", "setting": "NCI/ADR-RES", "value": "6070 nM (inactive)"},
      {"measurement": "GI50", "setting": "SNB-19", "value": "16700 nM (inactive)"},
      {"measurement": "GI50", "setting": "SK-MEL-28", "value": "2490 nM (inactive)"},
      {"measurement": "GI50", "setting": "HT-29", "value": "2610 nM (inactive)"},
      {"measurement": "GI50", "setting": "NCI-H460", "value": "2920 nM (inactive)"},
      {"measurement": "GI50", "setting": "NCI-H522", "value": "222 nM (active)"},
      {"measurement": "GI50", "setting": "HCT-15", "value": 1410, "unit": "nM"},
      {"measurement": "GI50", "setting": "A498", "value": "4970 nM (inactive)"},
      {"measurement": "GI50", "setting": "RPMI-8226", "value": "1660 nM (inactive)"},
      {"measurement": "GI50", "setting": "TK-10", "value": "4800 nM (inactive)"},
      {"measurement": "GI50", "setting": "SNB-75", "value": "12100 nM (inactive)"},
      {"measurement": "GI50", "setting": "SF-539", "value": "2090 nM (inactive)"},
      {"measurement": "GI50", "setting": "SR", "value": "2030 nM (inactive)"},
      {"measurement": "GI50", "setting": "HL-60", "value": "406 nM (active)"},
      {"measurement": "GI50", "setting": "KM12", "value": "11000 nM (inactive)"},
      {"measurement": "GI50", "setting": "MDA-MB-435", "value": "4380 nM (inactive)"},
      {"measurement": "GI50", "setting": "SW-620", "value": "2180 nM (inactive)"},
      {"measurement": "GI50", "setting": "OVCAR-4", "value": "2870 nM (inactive)"},
      {"measurement": "GI50", "setting": "A549", "value": "17400 nM (inactive)"},
      {"measurement": "GI50", "setting": "HOP-62", "value": "8550 nM (inactive)"},
      {"measurement": "GI50", "setting": "BT-549", "value": "3040 nM (inactive)"},
      {"measurement": "GI50", "setting": "SK-MEL-2", "value": "12100 nM (inactive)"},
      {"measurement": "GI50", "setting": "RXF 393", "value": "1820 nM (inactive)"},
      {"measurement": "GI50", "setting": "HCC 2998", "value": "2230 nM (inactive)"}
    ]}
  ]
}
